The IC50 is the concentration needed to halve the response being measured. Higher therefore signals a need for much substance. By Km is commonly meant the concentration of substrate that gives half-maximal velocity.

The results in this text go back to patent US4885301A, “Purinone derivatives which have bronchodilator, vasodilator and anti-allergic activities” (Smith Kline & French Laboratories Limited, priority 1987, dated 1989).

Assay [1] concerns the target T1, calmodulin insensitive cyclic GMP phosphodiesterase (Sus scrofa, UniProt A0A287B475).
T1 construct: Following dissection arteries were flash frozen in liquid nitrogen; from tissue; host or cells: pig pulmonary arteries or aortas, partially purified on DEAE-Sepharose, calmodulin-agarose and cibacron blue-agarose
Put plainly: Inhibition of phosphodiesterase (PDE), cyclic GMP hydrolysis. In kind it is biochemical, pig. The settings on record: 1 μM cyclic GMP, pH 7.5, 37° C. As for the experimental part:
(§1) Eight pig hearts/lungs were collected from the abattoir and kept on ice until the pulmonary arteries or aortas could be dissected and excess fat removed. 120 g of tissue was dissected. Unless otherwise stated all procedures were done at 4° C. Following dissection arteries were flash frozen in liquid nitrogen and stored at -70° C. until required. On the day of homogenisation, tissue was cooled with liquid nitrogen and broken into small pieces by striking with a hammer. The tissue was then homogenised in 15 mM BIS-TRIS, 1 μg/ml leupeptin and antipain, 2 μg/ml pepstatin A, 5 μM benzamidine, 2 mM EDTA (ethylenediaminetetraacetic acid) and 2 mM dithiothreitol, pH 6.5. Phenylmethanesulphonylfluoride (PMSF) was added to a final concentration of 50 μM just prior to homogenisation. The homogenate was then centrifuged for 20 minutes at 30,000 g. Supernatant was filtered firstly through glass wool and then a 0.45 μm filter. […] The column was washed with 150 mls of homogenisation buffer and PDE activities eluted with 150 ml of homogenisation buffer containing 100 mM sodium acetate. Six 25 ml fractions were collected, the flow rate throughout was 80 ml/hr.
Fractions 2 and 3 were pooled and BIS-TRIS, MgCl2, CaCl2 added to final concentrations of 50 mM, 7 mM and 5 mM respectively. PMSF, leupeptin, antipain and pepstatin A were also added at the concentrations described above for these components. The pH of this pooled sample was corrected to 6.9.
The sample was applied, at a flow rate of 3 ml/hr, to a tandem column set up. The first column in the tandem was a 5 ml calmodulin-agarose column (Sigma) and the second a 1.5 ml cibacron blue 3GA-agarose column (Sigma). Both columns were pre-equilibrated with 50 mM BIS-TRIS, 5 mM MgCl2, 5 mM CaCl2, 5 mM benzamidine, 2 mM dithiothreitol pH 6.9. Following application of the sample the columns were washed with 20 ml of equilibration buffer.
The cibacron blue-agarose column was then disconnected and washed with a variety of buffers as indicated below (Buffer A=50 mM BIS-TRIS, 5 mM benzamidine, 2 mM dithiotheitol pH 7.0).
20 ml Buffer A+2M NaCl, 5 mM MgCl2
20 ml Buffer A+2M NaCl, 10 mM EDTA
PDE activity bound to the column was eluted with eight 2.5 ml aliquots of Buffer A containing 2M NaCl, 10 mM EDTA and 10 mM cGMP. Fractions found to contain PDE activity were pooled and concentrated to approximately 1/3 the original volume by dialysis for 2 hr against Buffer A:glycerol (50:50) containing 15 mM 2-mercaptoethanol, 2 mM EDTA. After dialysis the concentration of cGMP in the fraction was reduced by treatment using a PD-10 column (Pharmacia) using dialysis buffer.
The fraction produced was stored at -20° C. and for experiments diluted 50-fold and used as the source of PDE activity for the assay of compounds.
The standard reaction mixture contained, in a final volume of 100 μl,
1 μM 3', 5'-cGMP (including 0.1 μCi ^3 H-cGMP)
and buffered with 50 mM TRIS/5 mM MgCl2 pH 7.5. The reaction was initiated with enzyme, and was carried out at 37° C. for 5-10 minutes. The reaction was terminated by placing tubes in a boiling water bath for 2 minutes. […] Unreacted ^3 H-cGMP was washed from the column with 10×1 ml HEPES/NaCl buffer. Labelled […] was eluted into a scintillation vial with 6 ml 0.25M acetic acid and counted in a scintillation counter using 10 ml Instagel (Packard). […] Assays were performed in duplicate and values corrected for blanks of <2%.

For assay [2], the system named is U46619-induced bronchoconstriction. Put plainly: Bronchodilatation in vivo: U46619-induced bronchoconstriction in anaesthetised guinea-pigs. Also on record: species or system guinea-pig (male Dunkin Hartley). The settings on record: Cavia porcellus, iv; i.v. bolus; U46619 infused i.v. 2.5 nmol/min; peak inhibition; read-out: BD50 (dose required to reduce the U46619-induced bronchoconstriction by 50%). As for the experimental part: Male guinea-pigs of the Dunkin Hartley strain (500-600 g) were anaesthetised with Sagatal (pentobarbital sodium) (60 mg/kg).
The dose of compound required to reduce the U46619-induced bronchoconstriction by 50% is given as the BD50.

Assay [3] has as its system antigen-induced bronchoconstriction. Put plainly: Anti-allergic activity in vivo: ovalbumin-induced bronchoconstriction in sensitized anesthetized guinea pigs. The settings on record: 100 μmol/kg intraduodenal. The arrangement: species or system guinea pig (adult male albino Hartley). As for the experimental part: Adult male albino Hartley strain guinea pigs weighing 400-600 g were actively sensitized to OA according to the procedure hereinbefore described. To measure pulmonary mechanics, a polyethylene catheter was inserted into the trachea of anesthetized (sodium pentobarbital, 35 mg/kg, i.p.) animals and airflow was measured via a heated pneumotachograph in combination with a differential pressure transducer connected to the pneumotachograph. Airflow and transpulmonary pressure signals were fed into an on-line pulmonary mechanics computer which integrated the flow signal to obtain tidal volume. Total pulmonary resistance (RL) and dynamic lung compliance (CDYN) were calculated at isovolumetric points according to the method of Amdur and Mead (Am. J. Physiol. 192:364-368, 1958).
A compound under test was dissolved in 25 mM NaHCO3 plus one drop of polyethylene glycol 400 to a concentration of 100 mM. Based on the weight of the animal, the appropriate amount of solution was removed and the volume brought up to 1 ml with 25 mM NaHCO3. For the intraduodenal administration of test compounds, a small midline incision was made in the abdomen, the duodenum was exposed, and a butterfly needle attached to plastic tubing was inserted. All solutions were adjusted to the same volume (1 ml) and administered through the butterfly needle and followed with 0.5 ml of distilled water. The needle was then removed and the abdominal incision was stapled to prevent heat loss.
Aerosols of OA were generated to deliver approximately 0.375 μl/breath. Pressure, flow rate and sensitivity were set such that a maximum pleural pressure of 20 cm water was attained during inhalation. One hour after the administration of the test compounds, quinea pigs were challenged with 5 inhalations of OA (0.5 mg/ml) via the tracheal cannula and changes in CDYN and RL were monitored for 10 minutes. […]
Results are expressed as a mean ± S.E. of 4 experiments. Statistical significance of differences between the means of control and drug-treated groups was determined using a unpaired Student's t test.

Assay [4] concerns hindquarter vascular resistance. Description: Vasodilatation in vivo: hindquarter blood flow in anaesthetised rats. The settings on record: Rattus norvegicus, iv, bolus i.v., read-out: EDHQ50 (dose required to produce a 50% increase in hindquarter blood flow). Also on record: species or system rat (male Wistar). As for the experimental part: Male Wistar rats (300 g) were anaesthetised with a sodium 5-ethyl-5-(1-methylpropyl)-2-thiobarbiturate/sodium pentobarbitone mixture i.p. (62.5 and 22.5 mg/kg respectively). The trachea was cannulated and the rats breathed spontaneously air enriched with O2 (5 ml/min). Blood pressure was recorded from a carotid artery and a jugular vein was cannulated for the administration of compounds. The temperature of the animal was maintained at 37° C. by the use of an electric blanket. […] The perfusion circuit was primed with 5% bovine serum albumin dissolved in 0.9% sodium chloride solution, pH adjusted to 7.4. Initially the pump rate was set between 10 and 15 ml/min to match the hind quarter perfusion pressure to that of the systemic circulation. Once set the pressure remained unaltered for the rest of the experiment. A change in the speed of the pump (equivalent to hindquarter blood flow) was used to assess the changes in hindquarter vascular resistance.
All compounds were administered as a bolus i.v. and from the dose response curves the dose required to produce a 50% increase in hindquarter blood flow (EDHQ50) was determined in μmoles/kg.

In assay [5] the test system is guinea-pig isolated trachea. Put plainly: Anti-allergic activity in vitro: ovalbumin-induced contraction of isolated trachea from sensitized guinea pigs. The arrangement: species or system guinea pig (male Hartley). The settings on record: for activity at 100 µM / Emax at 100 µM: Cavia porcellus, mean ± S.E.; for activity at 100 µM: 0.2 h, 30 min pretreatment, 12 minutes after OA (0.1 μg/ml), decline P<0.05, read-out: OA-induced contractile force as percentage of vehicle-treated control; for Emax at 100 µM: prior to OA challenge, N=4, read-out: reduction of basal tone, as a percentage of the maximum response to carbachol; for inhibition of antigen-induced contraction (in words): guinea-pig isolated trachea, 100 μM. As for the experimental part: The animals were injected intramuscularly with 0.7 ml of a 5.0% OA solution prepared in isotonic saline. Four weeks after sensitization tracheas were removed and cut into spiral strips. Each trachea was cut half, placed in 10-ml water-jacketed tissue baths and attached with biological tissue clips via silk suture to force displacement transducers for recording isometric tension. One half of each trachea served as a control for the corresponding drug-treated tissue. […] The tissue preparations were placed under 2 g passive tension and equilibrated for 60 minutes, during which time they were washed every 15 minutes with fresh buffer. Each tissue was pretreated for 45 minutes with meclofenamic acid (1 μM).
Tissues were pretreated with the compound under test (100 μM), or vehicle (0.4 mM NaOH) for 30 minutes prior to the addition of OA. OA (0.1 μg/ml) was added to all tissues and the contraction was monitored for 15 minutes. […] To evaluate effects of the test compounds, the degree of contraction was calculated 2 and 12 minutes after the addition of OA. OA-induced contraction of drug-treated tissues was expressed as a percentage of the response of vehicle-treated, paired controls.
Results are expressed as a mean ±S.E. of 4 experiments. Statistical significance of differences between the means of control and drug-treated groups was determined using a paired Student's t test.

Assay [6] has as its system PDE activity isolated from pig pulmonary arteries or aortas. Description: Properties of PDE activity: substrate kinetics. In kind it is biochemical. As for the experimental part: as §1
Fractions 2 and 3 were pooled and BIS-TRIS, MgCl2, CaCl2 added to final concentrations of 50 mM, 7 mM and 5 mM respectively. PMSF, leupeptin, antipain and pepstatin A were also added at the concentrations described above for these components. […]

SMILES strings stand for the structures.

In assay [1], `CC(C)COc1ccccc1-c1nc2[nH]c(=O)[nH]c2c(=O)[nH]1` [Example 9, 2-(2-Isobutoxypheny)purine-6,8-dione] had an IC50 of 3.64 µM. In addition, in assay [2], the ED50 turned out to be 4.5 µmol/kg.
`CCCOc1ccccc1-c1nc2nc[nH]c2c(=O)[nH]1` [Example 1, 2-(2-Propoxyphenyl)-6-purinone]: the “antigen-induced bronchoconstriction (in words)” value in assay [3] (60 minutes before OA challenge, N=4) was “significantly reduced antigen-induced bronchoconstriction”. The “increase in total pulmonary resistance (RL) after OA challenge” value in assay [3] (60 minutes before OA, 5 minutes after challenge, N=4, mean ± S.E., P<0.05 vs. vehicle (vehicle 162±40%)) amounted to 51±26%. Besides, the “dynamic lung compliance (CDYN) after OA challenge (in words)” value in assay [3] (60 minutes before OA, 5 minutes after challenge, P<0.01 vs. vehicle) is “unchanged from baseline”. Also, the ED50 in assay [4] turned out to be 10.8 µmol/kg. In addition, in assay [2], the ED50 came to 3.6 µmol/kg. Moreover, in assay [5], the activity at 100 µM was 46 ± 9%, the Emax at 100 µM amounted to 17 ± 3% and the “inhibition of antigen-induced contraction (in words)” value is given as “inhibit antigen-induced contraction of the guinea-pig isolated trachea”.
`CC(C)COc1ccccc1-c1nc2nc[nH]c2c(=O)[nH]1` [Example 4, 2-(2-Isobutoxyphenyl)-6-purinone] had an IC50 in assay [1] of 1.74 µM. Besides, in assay [2], the ED50 is 5.3 µmol/kg.
For `CCOc1ccccc1-c1nc2nc[nH]c2c(=O)[nH]1` [Example 2, 2-(2-Ethoxyphenyl)-6-purinone], in that order: 4.49 µM and 6.5 µmol/kg.
For `CCOc1ccccc1-c1nc2[nH]c(=O)[nH]c2c(=O)[nH]1` [Example 7, 2-(2-Ethoxyphenyl)purine-6,8-dione], in that order: 5.26 µM and 3.6 µmol/kg.
For the molecule `CCCOc1ccccc1-c1nc2[nH]c(=O)[nH]c2c(=O)[nH]1` [Example 5, 2-(2-Propoxyphenyl)purine-6,8-dione], in assay [1], the IC50 amounted to 1.25 µM. Further, the ED50 in assay [4] was determined as 3.7 µmol/kg. Also, the ED50 in assay [2] is 1 µmol/kg. In assay [5], the activity at 100 µM was 60 ± 4%, the Emax at 100 µM amounted to 24 ± 7% and the “inhibition of antigen-induced contraction (in words)” value is “inhibit antigen-induced contraction of the guinea-pig isolated trachea”.
`Nc1nc2c(ncn2[C@@H]2O[C@@H]3COP(=O)(O)O[C@H]3[C@H]2O)c(=O)[nH]1` [cGMP]: in assay [6] (1 μM substrate), the “Ratio of cGMP/cAMP hydrolysis” value is reported as 30. For the same molecule, the Km in assay [6] (substrate of the isolated PDE) is 1.3 µM.
Regarding `CCCCOc1ccccc1-c1nc2[nH]c(=O)[nH]c2c(=O)[nH]1` [Example 8, 2-(2-Butoxyphenyl)purine-6,8-dione], the IC50 in assay [1] was 6.79 µM. Further, in assay [2], the ED50 was determined as 1.5 µmol/kg.
As for `CCCCOc1ccccc1-c1nc2nc[nH]c2c(=O)[nH]1` [Example 3, 2-(2-Butoxyphenyl)-6-purinone], the IC50 in assay [1] stood at 5.04 µM. The ED50 in assay [2] turned out to be 3.8 µmol/kg.
